Tested on: B16F10 tumor cells
Experiment: Anti-tumor efficacy in the B16F10 models
Type: in vivo
Details: for TGI / Tumor Volume: BID, 20 days
Protocol: Materials required for the experiment: Antibody: mouse PD-1 antibody, Product specifications: 7.09 mg/mL (50 mg/mL), Lot No.: 695318A1 purchased from BioXcell, storage at 4 °C. Experimental animals: 60 C57BL/6 mice, female, 6˜8 weeks old, 17˜21 g, purchased from Shanghai Lingchang Biotechnology Co. Ltd. Formulation materials: castor oil (Cremophor RH40) , CAS No.: 61788-85-0, Lot No.: 29761847G0, purchased from Shanghai Xietai Chemical Co. Ltd.; β-cyclodextrin (SBE-β-CD), CAS No.: 128446-35-5, Lot No.: 20180110, purchased from Shanghai Shaoyuan Chemical Co. Ltd.; DMEM culture medium, Art. No.: 11995-065, Lot No.:2025378, purchased from Gibco Co. Ltd.; PBS, Art. No.: SH30256.01, Lot No.: AB10141338, purchased from HyClone Co. Ltd.; Fetal bovine serum: Art. No.: 04-002-1A, Lot No.: 1625436, purchased from Boehringer Ingelheim Co. Ltd.; Methyl cellulose (MC), Art. No.: M7027-250G, Lot No.: 079K0054V, purchased from Sigma.
Cell preparation and implantation: The B16-F10 tumor cells (ATCC CRL6475™) were maintained in vitro as a monolayer culture in DMEM medium supplemented with 10% heat inactivated fetal bovine serum at 37° C. in an atmosphere of 5% CO2 in air. The tumor cells were routinely subcultured three times weekly by trypsin-EDTA treatment. The cells growing to a confluency around 70%-80% were harvested and counted for tumor inoculation.
Tumor cell inoculation and group administration: The 100 uL cell suspension containing 1×10^6 B16F10 tumor cells (cells suspended in base DMEM medium) was inoculated into the right subcutaneous of mice. On the second day after inoculation, according to the order of tumor inoculation, stratified randomization was used to group and start the administration on the day of grouping.
Preparation of test substances: Preparation of formulation: 700 mL of sterile water was added into the volumetric flask with magnetic stirring to have a vortex. 100 g of castor oil (Cremophor RH40) was added with a spoon slowly into the vortex and the solution was kept stirring. 200 g of β-cyclodextrin (SBE-β-CD) was added while the solution was kept stirring until the solution was clear, and the total volume was set to 1000 mL, which contained 10% (w/v) Cremophor RH40+20% (w/v) an aqueous solution of SBE-β-CD.
Preparation of compound suspension: 169.16 mg compound was weighed, 14.012 mL 10% (w/v) Cremophor RH40+20% (w/v) SBE-β-CD aqueous solution were added, and the suspension solution with a concentration of 12.0 mg/mL was obtained by fully mixing with magnetic stirring. 6.0 mL of the compound suspension solution with concentration of 12.0 mg/mL was pipetted and 6.0 mL aqueous formulation solution was added. The suspension solution with a concentration of 6.0 mg/mL was obtained by fully mixing with magnetic stirring. 6.0 mL of the compound suspension solution with concentration of 6.0 mg/mL was pipetted and 6.0 mL aqueous formulation solution was added. The suspension solution with a concentration of 3.0 mg/mL was obtained by fully mixing with magnetic stirring. The compound suspension solution was prepared once a day.
Preparation of mPD-1 antibody: 0.564 mL mPD-L1 antibody (7.09 mg/mL) original solution was pipetted and […] PBS solution was added. The solution was fully mixed and the final concentration of 1 mg/mL solution was obtained.
Procedure: The mice in the vehicle group were weighed and recorded in the electronic balance according to their numbers. The mice in the vehicle group were given prepared formulation solution twice a day by oral administration according to their body weight with a capacity of 0.1 mL/10 g. Each mouse spent about 20 seconds and 10 mice in each group shared for about 5 minutes.
The mice in the antibody (10 mg/kg) group were weighed and recorded in the electronic balance according to their numbers. The mice in the antibody group were given prepared antibody solution twice a week by IP administration according to their body weight with a capacity of 0.1 ml/10 g. […]

[1] = B16F10, C57BL/6 mice, 30 mg/kg, PO
[2] = B16F10, C57BL/6 mice, 60 mg/kg, PO
[3] = B16F10, C57BL/6 mice, 120 mg/kg, PO

Which “growth of subcutaneous transplanted melanoma cell line in mice” value (B16F10, C57BL/6 mice) does the source give for `Cc1c(/C=C/c2cc(CN[C@@](C)(CO)C(=O)O)ccc2C(F)(F)F)cccc1-c1ccccc1` [Compound] here?
The value was “significantly inhibit the growth”.

What about the TGI [1] of the same molecule?
The TGI was 35.59%.

What about the “Tumor Volume” value [1] of the same molecule?
The value was 795.99 ± 112.92 mm^3.

What about the TGI [2] of the same molecule?
Its TGI is 38.87%.

What about the “Tumor Volume” value [2] of the same molecule?
Its value is 755.48 ± 155.85 mm^3.

What about the TGI [3] of the same molecule?
Its TGI is 47.35%.

And the “Tumor Volume” value [3]?
The value was 650.67 ± 157.53 mm^3.

What about the “tolerability (adverse reactions)” value (C57BL/6 mice, PO, BID up to 120 mg/kg) of the same molecule?
The value was “well tolerated”.

From patent US20220313626A1, “SMALL MOLECULE INHIBITORS FOR TREATING CANCER IN A SUBJECT HAVING TUMORS WITH HIGH INTERSTITIAL PRESSURE” (GUANGZHOU MAXINOVEL PHARMACEUTICALS CO., LTD., priority 2019, published 2022)
